Data published in patent US20140193827A1 (TEVA PHARMACEUTICAL INDUSTRIES, LTD., priority 2013, published 2014).

Tested on: GA-primed murine splenocytes
Assay: ANOVA-based pattern identification method
Assay type: cell-based, mouse
Conditions: DOWN IN generic ONLY
Text: We sought to identify probes matching specific patterns of expression across experimental conditions using a technique that referred to as the ANOVA-based Pattern Identification Method.
To carry out the analysis in a general manner, we computed the 6 p-values required to do pairwise comparisons of all 4 conditions for all probes using the ANOVA1 function in MATLAB. We then identified sets of probes matching the desired pattern. In the example above, probes were identified as being only affected by PG if their 6 pairwise comparison pvalues matched the following pattern (pGA-PG<0.05, pPG-reference standard<0.05, pPG-Medium<0.05, pGAMedium>0.05, pGA-reference standard>0.05, preference standard-Medium>0.05).

## glatiramer acetate [GA]
  GFRA3 expression level: 5.616
  GJA7 expression level: 5.868
  GM362 expression level: 5.639
  HEATR5A expression level: 5.695
  IGHVS515—AF290966_IG_HEAVY—VARIABLE_5515_49 expression level: 5.952
  LOC235971 expression level: 5.505
  LOC277422 expression level: 5.729
  LOC382760 expression level: 5.651
  LOC382783 expression level: 5.536
  LOC383612 expression level: 5.569
  LOC383940 expression level: 5.805
  LOC384215 expression level: 5.829
  LOC384513 expression level: 5.705
  LOC385059 expression level: 5.539
  LOC385626 expression level: 6.046
  LOC620009 expression level: 5.619
  LOC676672 expression level: 5.825
  LOC100043389 expression level: 5.675
  LTBP1 expression level: 5.694
  NEUROD4 expression level: 5.671
  NFAT5 expression level: 5.815
  OA1 expression level: 5.552
  OLFR750 expression level: 5.646
  OLFR1085 expression level: 5.642
  OLFR1158 expression level: 5.912
  OLFR1180 expression level: 5.658
  OLFR1230 expression level: 5.655
  OSBPL6 expression level: 5.8511
  PCDHGA8 expression level: 5.782
  PIK3R4 expression level: 5.881
  PPP1R14D expression level: 5.611
  PTCHD2 expression level: 5.831
  RARRES1 expression level: 5.601
  RNF207 expression level: 5.863
  RPL10A expression level: 14.66
  RTN2 expression level: 5.939
  SCL0070954.1_214 expression level: 5.822
  SERPINB3D expression level: 5.741
  SMARCA2 expression level: 5.616
  TMEM219 expression level: 6.158
  TRPC6 expression level: 5.632
  UTX expression level: 5.7
  control_ILMN_1378571 expression level: 5.812
  control_ILMN_1378664 expression level: 5.743
  control_ILMN_1379333 expression level: 5.62
Group mean
  1110032A03RIK expression: 5.853
  1600012H06RIK expression: 7.313
  1600029O10RIK expression: 7.692
  1600032L17RIK expression: 6.091
  1700006H02RIK expression: 5.861
  1700011H14RIK expression: 5.738
  1700016G05RIK expression: 5.78
  1700016L04RIK expression: 5.693
  1700045I19RIK expression: 5.885
  1700073E17RIK expression: 5.629
  1700112H15RIK expression: 5.628
  1810005K13RIK expression: 5.74
  1810007M14RIK expression: 6.86
  2210008F06RIK expression: 5.65
  2210018M11RIK expression: 6.603
  2310016E02RIK expression: 5.742
  2510049I19RIK expression: 6.311
  2600011C06RIK expression: 6.286
  2810402E24RIK expression: 6.296
  4733401O04RIK expression: 6.449
  4833420G17RIK expression: 6.181
  4921505C17RIK expression: 6.382
  4921506J03RIK expression: 9.893
  4921506M07RIK expression: 5.749
  4922502D21RIK expression: 5.774
  4930449I04RIK expression: 5.894
  4930524L23RIK expression: 5.492
  5830411J07RIK expression: 5.837
  5830415L20RIK expression: 7.797
  5830472H07RIK expression: 6.24
  6030408K21RIK expression: 5.64
  9030003C19RIK expression: 6.271
  9130601C02RIK expression: 5.724
  9330133O14RIK expression: 6.205
  9330171B01RIK expression: 5.814
  9530013H16R1K expression: 5.782
  9530053H22 expression: 5.531
  9830118G07RIK expression: 6.53
  9930021J03RIK expression: 5.61
  6030408816RIK expression: 6.231
  A130003P22RIK expression: 6.043
  A130027D22RIK expression: 6.184
  A630040J04RIK expression: 5.997
  A630057J21RIK expression: 5.71
  A730082L10RIK expression: 6.255
  A930008A22RIK expression: 8.393
  A930025D01RIK expression: 6.43
  ADRA1B expression: 5.76
  AFMID expression: 6.226
  AGPAT5 expression: 5.926
  AGT expression: 5.634
  APOM expression: 6.071
  ARHGAP12 expression: 5.654
  ASH1L expression: 5.947
  ATG12 expression: 8.962
  ATL1 expression: 5.666
  AW822252 expression: 5.749
  B230120H23RIK expression: 5.612
  B230216G23RIK expression: 5.625
  B930071N01RIK expression: 5.764
  BC003331 expression: 7.368
  BC016608 expression: 5.838
  BC057371 expression: 5.752
  BCL10 expression: 6.261
  BCL11B expression: 6.506
  BCORL1 expression: 6.102
  BHLHB3 expression: 5.621
  BIRC6 expression: 6.264
  BMPR1B expression: 5.732
  C030004B10RIK expression: 5.708
  C77370 expression: 5.694
  C87414 expression: 5.972
  C130039E17RIK expression: 5.729
  C130064E22RIK expression: 7.411
  C130072C03RIK expression: 6.075
  C130075H21RIK expression: 5.869
  C130078D09RIK expression: 6.02
  C330011J12RIK expression: 5.722
  CALCRL expression: 5.569
  CCDC104 expression: 5.832
  CDH23 expression: 5.945
  CDKN1B expression: 6.29
  CFL2 expression: 6.246
  CHMP7 expression: 9.491
  CLASP1 expression: 6.034
  COL23A1 expression: 7.128
  COPS3 expression: 6.029
  COPZ1 expression: 6.26
  CPEB2 expression: 5.648
  CRLF1 expression: 5.648
  CTDSPL2 expression: 6.711
  D12WSU95E expression: 9.426
  D130078K04RIK expression: 5.957
  D730033A03RIK expression: 5.894
  D930007M19RIK expression: 6.333
  DEFB14 expression: 5.775
  DLC1 expression: 5.804
  DLG4 expression: 6.044
  DLGAP2 expression: 5.718
  DLX6 expression: 5.766
  DNAJC28 expression: 5.998
  DPPA1 expression: 5.758
  DPPA4 expression: 5.791
  E230016F22RIK expression: 5.685
  E530016P10RIK expression: 6.096
  EEFSEC expression: 5.654
  EG546913 expression: 5.766
  ELF2 expression: 6.475
  EP400 expression: 5.945
  FAAH expression: 5.947
  FABP2 expression: 5.582
  FBXW13 expression: 5.945
  FOXJ3 expression: 8.648
  GADD45GIP1 expression: 5.893
  GALNT1 expression: 7.895
  GALNT6 expression: 5.873
  GAPVD1 expression: 9.838
  GLRA1 expression: 5.643
  GM239 expression: 5.731
  GM438 expression: 5.731
  GM949 expression: 5.662
  GPR12 expression: 5.747
  GPRIN3 expression: 5.628
  GUCY2C expression: 5.74
  HARS expression: 6.212
  HBB-B1 expression: 13.28
  HEATR5B expression: 6.251
  HIRA expression: 5.73
  HIVEP3 expression: 5.796
  HPN expression: 5.793
  HRK expression: 5.72
  HSD362 expression: 5.745
  HSPA1B expression: 5.99
  ID2 expression: 6.095
  IFI204 expression: 5.486
  IGHV14S3—X03573$M12991X03573—IG_HEAVY—VARIABLE_14S3_203 expression: 6.044
  IKZF5 expression: 7.23
  IL1F9 expression: 5.644
  INPP4B expression: 9.329
  INSL6 expression: 9.438
  ITGA6 expression: 6.589
  ITK expression: 10.36
  JRKL expression: 5.816
  K20D4 expression: 5.688
  KAT2B expression: 6.564
  KCNK4 expression: 5.659
  KISS1 expression: 5.727
  KRIT1 expression: 5.684
  KRT32 expression: 6.01
  LCN3 expression: 5.859
  LCP2 expression: 6.557
  LOC209474 expression: 5.679
  LOC229152 expression: 5.605
  LOC236397 expression: 5.838
  LOC236831 expression: 12.43
  LOC268939 expression: 5.99
  LOC279638 expression: 6.022
  LOC333749 expression: 5.939
  LOC381448 expression: 12.91
  LOC381561 expression: 13.17
  LOC381770 expression: 6.112
  LOC382061 expression: 10.4
  LOC382454 expression: 5.761
  LOC384240 expression: 5.807
  LOC384287 expression: 5.612
  LOC385027 expression: 5.666
  LOC385046 expression: 5.695
  LOC630421 expression: 5.995
  LOC637082 expression: 5.805
  LOC674087 expression: 8.034
  LOC675899 expression: 11.9
  LOC100045437 expression: 5.74
  LOC100046343 expression: 8.607
  LOC100046568 expression: 5.888
  LOC100048049 expression: 5.81
  LOC100048616 expression: 6.595
  LOXL3 expression: 5.801
  LPIN2 expression: 7.582
  LRRC18 expression: 5.542
  LRRC39 expression: 5.712
  MACROD2 expression: 5.854
  MADD expression: 5.584
  MAT2A expression: 8.359
  MDM2 expression: 10.46
  MEDI expression: 5.672
  MEX3A expression: 6.913
  MIA3 expression: 5.862
  MIS12 expression: 5.989
  MKI67 expression: 5.673
  MRPS31 expression: 5.671
  MSH3 expression: 6.288
  MYB expression: 5.95
  MYO5C expression: 5.73
  NA112 expression: 8.275
  NANP expression: 5.686
  NARF expression: 7.224
  NCOA2 expression: 5.964
  NDRG1 expression: 7.329
  NIN expression: 8.534
  NIPSNAP1 expression: 9.27
  NT5C expression: 10.09
  NUFIP2 expression: 6.03
  OLFR125 expression: 5.697
  OLFR463 expression: 5.805
  OLFR504 expression: 5.746
  OLFR564 expression: 5.592
  OLFR782 expression: 5.74
  OLFR894 expression: 5.766
  PAPPA expression: 5.918
